Data reported in US20230140132A1, “ARGINASE INHIBITORS AND METHODS OF USE” (MERCK SHARP & DOHME LLC, priority 2020, published 2023).
pIC50: −log10 of the molar value.

Tests used:
[1] = test system: opossum internal anal sphincter muscle; conditions: Baggio et al. 1999; cited from earlier work
[2] = test system: airway hyperresponsiveness; conditions: guinea pigs, nebulizer treatment, allergic asthma model; cited from earlier work
[3] = test system: rabbit and human penile corpus cavernosum; conditions: Cox et al. 1999; cited from earlier work
[4] = test system: erectile response; conditions: live male rabbits; Cama et al. 2003; cited from earlier work
[5] = test system: corpus cavernosum of the diabetic person; conditions: ex vivo, Bivalacqua et al. 2001; cited from earlier work
[6] = test system: engorgement response in the genitalia; conditions: live female rabbits; Cama et al. 2003; cited from earlier work
[7] = test system: experimental autoimmune encephalomyelitis; conditions: Xu et al. 2003; cited from earlier work
[8] = target: T1, Arginase (Homo sapiens, UniProt P05089); assay: Arginase Thioornithine Generating Assay (TOGA); format: biochemical; conditions: recombinant arginase 1.88 nM, thioarginine substrate, fluorescence readout
T1 sequence (P05089 1-322): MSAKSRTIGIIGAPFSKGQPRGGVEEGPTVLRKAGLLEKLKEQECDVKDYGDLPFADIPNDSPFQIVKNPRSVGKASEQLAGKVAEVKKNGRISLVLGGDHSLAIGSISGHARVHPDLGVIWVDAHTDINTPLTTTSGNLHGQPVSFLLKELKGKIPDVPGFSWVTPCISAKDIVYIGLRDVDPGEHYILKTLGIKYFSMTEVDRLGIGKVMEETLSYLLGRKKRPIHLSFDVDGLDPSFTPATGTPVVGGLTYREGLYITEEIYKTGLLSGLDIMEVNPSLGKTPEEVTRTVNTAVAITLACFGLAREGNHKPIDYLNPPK
Method: Compounds were serially diluted in ten 3-fold steps in DMSO starting from 10 mM DMSO stocks. Compound dilutions or DMSO alone were then dispensed from the dilution plate into a Greiner black 384-well assay plate (catalog #781086) using an Echo 555 acoustic liquid handler (Labcyte).
Arginase protein was recombinantly expressed in Escherichia coli. Purified protein was then diluted in assay buffer (50 mM Tris pH 7.5, 50 mM NaCl, 1 mM manganese chloride, 0.05% bovine serum albumin to obtain a final Arginase concentration of 1.88 nM. Arginase solution (20 μL) or buffer alone (20 μL) were dispensed to wells of the assay plate using a BioRAPTR liquid dispenser (Beckman Coulter). Assay plates containing compound and arginase enzyme were incubated at room temperature for 30 minutes. Afterwards, 5 μL of 2.5 mM thioarginine (Cayman Chemicals) in assay buffer were added to each well of the assay plate using a BioRAPTR liquid dispenser. Plates were incubated at room temperature for 60 minutes and reactions were quenched by addition of 15 μL of 200 uM 7-Diethylamine-3-(4-maleimidophenyl)-4-methylcoumarin (Sigma Chemical) in 70% ethanol. Plates were briefly shaken to mix and the fluorescence was measured in an Spectramax plate reader (Molecular Devices) with a 410 nm excitation wavelength and an 490 nm emission wavelength.
Potencies were calculated by […] to the four parameter logistic IC50 equation.

Q: Which results are given for `N[C@@H](CCCCB(O)O)C(=O)O` [ABH, (S)-2-amino-6-boronohexanoic acid]?
A: relaxation of internal anal sphincter muscle [1]: relax this muscle; airway hyperresponsiveness [2]: prevents airway hyperresponsiveness; nitric oxide-dependent relaxation of corpus cavernosum tissue [3]: enhances the nitric oxide-dependent relaxation of this tissue; erectile response [4]: enhances the erectile response; nitric oxide biosynthesis [5]: restores nitric oxide biosynthesis; engorgement response in the genitalia [6]: enhances the engorgement response; disease score [7]: improves the disease score of animals

Q: With `C[C@]1(CCCB(O)O)[C@@H](C(=O)O)N[C@H]2C[C@H]21` [Example 24, (1S,3S,4R,5S)-4-(3-boronopropyl)-4-methyl-2-azabicyclo[3.1.0]hexane-3-carboxylic Acid] as the compound, how does the pIC50 [8] read?
A: Its pIC50 is 5.24.

Q: With `O=C(O)[C@H]1NC[C@@H]2NC[C@@]21CCCB(O)O` [Example 34, (1S,2S,5R)-1-(3-boronopropyl)-3,6-diazabicyclo[3.2.0]heptane-2-carboxylic Acid] as the compound, how does the pIC50 [8] read?
A: Its pIC50 is 6.98.

Q: With `C[C@]1(CCCB(O)O)[C@@H](C(=O)O)N[C@@H]2CC[C@@H]21` [Example 17, (1R,3S,4R,5R)-4-(3-boronopropyl)-4-methyl-2-azabicyclo[3.2.0]heptane-3-carboxylic Acid] as the compound, how does the pIC50 [8] read?
A: The pIC50 was 7.18.

Q: With `O=C(O)[C@H]1NC[C@@H]2NCC[C@@]21CCCB(O)O` [Example 1, (3aS,4S,6aR)-3a-(3-boronopropyl)octahydropyrrolo[3,4-b]pyrrole-4-carboxylic Acid] as the compound, how does the pIC50 [8] read?
A: Its pIC50 is 8.79.
